Where two headings read alike, the source gives them in different places.
System: monocistronic NK5.1 HCV replicon in Huh7 cells
Test: HCV replicon assay, monocistronic replicon cell line
Type: cell-based, hepatitis C virus
Conditions: Hepatitis C virus, read-out: Mono EC50 Median
How it was run: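 Huh7 cells carrying the monocistronic NK5.1 replicon, seeded 24 h before dosing, were exposed to six-point half-log compound series (0.6% DMSO) for 3 days at 37 °C. Replicon RNA was quantified by TaqMan RT-PCR, normalised to GAPDH and compared with DMSO controls to derive EC50.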

[1] = Huh-7, 72 h, Table 1, monocistronic replicon in Huh7 cells, 3 days incubation, HCV RNA/GAPDH RNA by TaqMan RT-PCR
[2] = Huh-7, 72 h, table T3 (compounds 471-640), monocistronic replicon in Huh7 cells, 3 days incubation, HCV RNA/GAPDH RNA by TaqMan RT-PCR
[3] = Huh-7, monocistronic NK5.1 HCV replicon in Huh7 cells, median value

Row | SMILES | EC50 [1] [µM] | EC50 [2] [µM] | EC50 [3] [µM]
1 | Oc1c(Cl)cc(Cl)cc1-c1cc(-c2ccccn2)on1 [Compound 127, 2,4-Dichloro-6-(5-pyridin-2-yl-isoxazol-3-yl)-phenol] | 7.4 | – | –
2 | Cc1cccnc1-c1noc(-c2cc(Cl)ccc2O)n1 [Compound 186, 4-Chloro-2-[3-(3-methyl-pyridin-2-yl)-[1,2,4]oxadiazol-5-yl]-phenol] | 3.9 | – | –
3 | Oc1ccc(Br)cc1-c1cc(-c2ccccn2)on1 [Compound 130, 4-Bromo-2-(5-pyridin-2-yl-isoxazol-3-yl)-phenol] | 11 | – | –
4 | COc1ccc(O)c(-c2nc(-c3ccc(N)cn3)n[nH]2)c1 [Compound 594, 2-[5-(5-Amino-pyridin-2-yl)-2H-[1,2,4]triazol-3-yl]-4-methoxy-phenol] | – | > 19 | –
5 | COc1ccc(O)c(-c2nc(-c3cccc(C)n3)n[nH]2)c1 [Compound 394, 4-Methoxy-2-(5-(6-methyl-pyridin-2-yl)-2H-[1,2,4]triazol-3-yl)-phenol] | – | – | > 19
6 | Oc1ccc(O)c(-c2nc(-c3nccc4ccccc34)no2)c1 [Compound 196, 2-(3-Isoquinolin-1-yl-[1,2,4]oxadiazol-5-yl)-benzene-1,4-diol] | > 32 | – | –
7 | COc1ccc(O)c(-c2nc(-c3ccc(C(F)(F)F)cn3)no2)c1 [Compound 224, 4-Methoxy-2-[3-(5-trifluoromethyl-pyridin-2-yl)-[1,2,4]oxadiazol-5-yl]-phenol] | 3.2 | – | 3.2
8 | COc1ccc(O)c(-c2ccnn2Cc2ccc3ccccc3n2)c1 [Compound 109, 4-Methoxy-2-(2-quinolin-2-ylmethyl-2H-pyrazol-3-yl)-phenol] | > 32 | – | –
9 | Oc1ccccc1-c1nc(-c2nccc3ccccc23)no1 [Compound 206] | 1.4 | – | –
10 | Oc1ccc2ccccc2c1-c1nc(-c2ccc(C(F)(F)F)cn2)n[nH]1 [Compound 525, 1-[5-(5-trifluoromethyl-pyridin-2-yl)-2H-[1,2,4]triazol-3-yl]-naphthalen-2-ol] | – | > 19 | –
11 | Cc1cccnc1-c1nc(-c2cc(Cl)ccc2O)n(C)n1 [Compound 610, 4-Chloro-2-[2-methyl-5-(3-methyl-pyridin-2-yl)-2H-[1,2,4]triazol-3-yl]-phenol] | – | 2.5 | –
12 | O=[N+]([O-])c1cccc(-c2nc(-c3ccccn3)n[nH]2)c1 [Compound 364, 2-[5-(3-Nitro-phenyl)-1H-[1,2,4]triazol-3-yl]-pyridine] | – | – | > 32
13 | COc1ccc(O)c(-c2nc(-c3ccc(N)cn3)no2)c1 [Compound 252, 2-[3-(5-Amino-pyridin-2-yl)-[1,2,4]oxadiazol-5-yl]-4-methoxy-phenol] | – | – | 9.2
14 | Cc1cccnc1-c1noc(-c2ccc(N)cc2O)n1 [Compound 277, 5-Amino-2-[3-(3-methyl-pyridin-2-yl)-[1,2,4]oxadiazol-5-yl]-phenol] | – | – | 6
15 | Cc1cccnc1-c1noc(-c2cc(OCCc3ccccc3)ccc2O)n1 [Compound 273, 2-[3-(3-Methyl-pyridin-2-yl)-[1,2,4]oxadiazol-5-yl]-4-phenethyloxy-phenol] | – | – | > 19
16 | c1ccc2c(-c3nc(-c4nccc5ccccc45)no3)cccc2c1 [Compound 200, 1-(5-Naphthalen-1-yl-[1,2,4]oxadiazol-3-yl)-isoquinoline] | > 32 | – | –
17 | Brc1ccccc1-c1nc(-c2nccc3ccccc23)n[nH]1 [Compound 437] | – | – | 2.7
18 | Cc1cccc(-c2n[nH]c(-c3c(O)ccc4ccccc34)n2)n1 [Compound 409, 1-(5-(6-methyl-pyridin-2-yl)-2H-[1,2,4]triazol-3-yl)-naphthalen-2-ol] | – | – | > 19
19 | COc1cccc(-c2nc(-c3cccc(C)n3)n[nH]2)c1 [Compound 405, 2-[5-(3-Methoxy-phenyl)-1H-[1,2,4]triazol-3-yl]-6-methyl-pyridine] | – | – | > 19
20 | COc1cccc(-c2nc(-c3ncccc3Br)n[nH]2)c1 [Compound 500, 3-Bromo 2-[5-(3-Methoxy-phenyl)-1H-[1,2,4]triazol-3-yl]-pyridine] | – | > 32 | –
21 | Oc1ccc2ccccc2c1-c1nc(-c2cnccc2C(F)(F)F)n[nH]1 [Compound 429, 1-[5-(4-trifluoromethyl-pyridin-3-yl)-2H-[1,2,4]triazol-3-yl]-naphthalen-2-ol] | – | – | > 19
22 | COc1cccc(-c2nc(-c3ncccc3C(F)(F)F)n[nH]2)c1O [Compound 543, 6-Methoxy-2-[5-(3-trifluoromethyl-pyridin-2-yl)-2H-[1,2,4]triazol-3-yl]-phenol] | – | > 19 | –
23 | COc1ccc(O)c(-c2nc(-c3ncccc3OC)no2)c1 [Compound 248, 4-Methoxy-2-[3-(3-methoxy-pyridin-2-yl)-[1,2,4]oxadiazol-5-yl]-phenol] | 13 | – | 13

Row | SMILES | EC50 [1] [µM] | EC50 [2] [µM] | EC50 [3] [µM]
24 | FC(F)(F)c1ccncc1-c1n[nH]c(-c2ccc(Br)cc2)n1 [Compound 430, 3-[5-(4-Bromo-phenyl)-1H-[1,2,4]triazol-3-yl]-4-trifluoromethyl-pyridine] | – | – | > 19
25 | COc1ccc(O)c(-c2nc(-c3ncccc3Br)n[nH]2)c1 [Compound 487, 2-[5-(3-Bromo-pyridin-2-yl)-2H-[1,2,4]triazol-3-yl]-4-Methoxy-phenol] | – | > 32 | –
26 | CC(C)c1ccc(-c2nc(-c3cnccc3C(F)(F)F)n[nH]2)cc1 [Compound 428, 3-[5-(4-Isopropyl-phenyl)-1H-[1,2,4]triazol-3-yl]-4-trifluoromethyl-pyridine] | – | – | > 19
27 | Cc1cccnc1-c1n[nH]c(-c2cccc(Br)c2)n1 [Compound 505, 2-[5-(3-Bromo-phenyl)-1H-[1,2,4]triazol-3-yl]-3-methyl-pyridine] | – | 4 | –
28 | O=[N+]([O-])c1ccccc1-c1nnc(-c2ccccc2O)o1 [Compound 321, 2-[5-(2-Nitro-phenyl)-[1,3,4]oxadiazol-2-yl]-phenol] | – | – | > 32
29 | Cc1cccnc1-c1n[nH]c(-c2cc3c4c(c2O)C(C)(C)CCN4CCC3(C)C)n1 [Compound 456, 1,1,7,7-Tetramethyl-9-[5-(3-methyl-pyridin-2-yl)-2H-[1,2,4]triazol-3-yl]-2,3,6,7-tetrahydro-1H,5H-pyrido[3,2,1-ij]quinolin-8-ol] | – | – | 0.73
30 | Cc1cccc(-c2n[nH]c(-c3ccc(C(C)C)cc3)n2)n1 [Compound 408, 2-[5-(4-Isopropyl-phenyl)-1H-[1,2,4]triazol-3-yl]-6-methyl-pyridine] | – | – | > 19
31 | COc1ccc(-c2nc(-c3ncccn3)n[nH]2)c(O)c1 [Compound 568, 5-Methoxy-2-(5-pyrimidin-2-yl-2H-[1,2,4]triazol-3-yl)-phenol] | – | > 32 | –
32 | O=[N+]([O-])c1ccccc1-c1nnc(-c2c(O)ccc3ccccc23)o1 [Compound 311, 1-[5-(2-Nitro-phenyl)-[1,3,4]oxadiazol-2-yl]-naphthalen-2-ol] | – | – | 4
33 | Cc1cccc(-c2n[nH]c(-c3c(F)cccc3F)n2)n1 [Compound 468, 2-[5-(2,6-Difluoro-phenyl)-1H-[1,2,4]triazol-3-yl]-6-methyl-pyridine] | – | – | > 32
34 | FC(F)(F)c1ccncc1-c1n[nH]c(-c2c(Cl)cccc2Cl)n1 [Compound 477, 3-[5-(2,6-Dichloro-phenyl)-1H-[1,2,4]triazol-3-yl]-4-trifluoromethyl-pyridine] | – | > 32 | –
35 | COc1cc(O)c(-c2ccn(-c3ncccc3C)n2)cc1OC [Compound 122, 4,5-Dimethoxy-2-[l-(3-methyl-pyridin-2-yl)-1H-pyrazol-3-yl]-phenol] | 13 | – | –
36 | Oc1ccc2ccccc2c1-c1nnc(-c2ccco2)o1 [Compound 307, 1-(5-Furan-2-yl-[1,3,4]oxadiazol-2-yl)-naphthalen-2-ol] | – | – | > 32
37 | Oc1cc(OCc2ccccc2)ccc1-c1nc(-c2ncccc2C(F)(F)F)n[nH]1 [Compound 537, 5-Benzyloxy-2-[5-(3-trifluoromethyl-pyridin-2-yl)-2H-[1,2,4]triazol-3-yl]-phenol] | – | > 19 | –
38 | Cc1ccc(O)c(-c2nc(-c3ncccc3C)n[nH]2)c1 [Compound 450, 4-Methyl-2-(5-(3-methyl-pyridin-2-yl)-2H-[1,2,4]triazol-3-yl)-phenol] | – | – | 4.2
39 | Cc1ccc(O)c(-c2nc(-c3ccoc3)no2)c1 [Compound 284, 2-(3-Furan-3-yl-[1,2,4]oxadiazol-5-yl)-4-methyl-phenol] | – | – | 17
40 | Oc1ccc2ccccc2c1-c1nnc(-c2cccs2)o1 [Compound 308, 1-(5-Thiophen-2-yl-[1,3,4]oxadiazol-2-yl)-naphthalen-2-ol] | – | – | 26
41 | Cn1nc(-c2ccccn2)nc1-c1cc(Cl)ccc1O [Compound 599, 4-Chloro-2-(2-methyl-5-pyridin-2-yl-2H-[1,2,4]triazol-3-yl)-phenol] | – | 12 | –
42 | Oc1ccc(Cl)cc1-c1ncn(-c2ccccn2)n1 [Compound 630, 4-Chloro-2-(1-pyridin-2-yl-1H-[1,2,4]triazol-3-yl)-phenol] | – | 11 | –
43 | COc1ccc(O)c(-c2nc(-c3ncccc3[N+](=O)[O-])n[nH]2)c1 [Compound 554, 4-Methoxy-2-[5-(3-nitro-pyridin-2-yl)-2H-[1,2,4]triazol-3-yl]-phenol] | – | > 19 | –
44 | COc1cc(O)c(-c2nc(-c3ncccc3C)no2)c(OC)c1 [Compound 240, 3,5-Dimethoxy-2-[3-(3-methyl-pyridin-2-yl)-[1,2,4]oxadiazol-5-yl]-phenol] | 0.7 | – | 0.7
45 | COc1ccccc1-c1nnc(-c2c(Cl)cccc2Cl)o1 [Compound 329, 2-(2,6-Dichloro-phenyl)-5-(2-methoxy-phenyl)-[1,3,4]oxadiazole] | – | – | > 32
46 | Oc1ccc(O)c(-c2nc(-c3ccccn3)n[nH]2)c1 [Compound 386, 4-Hydroxy-2-(5-pyridin-2-yl-2H-[1,2,4]triazol-3-yl)-phenol] | – | – | > 19

Source: US20050075375A1 (priority 2003, published 2005)
